This series has as its target CD137 (Homo sapiens, UniProt Q07011). Kind of series: CD137 reporter assay, co-culture with Nectin-4 tumour cells.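 On all read-outs here: jurkat reporter cells co-cultured with tumour cells and test article for 6 h, luminescence signal relative to Jurkat plus tumour cells lacking test article.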 The arrangement: host or cells: Jurkat reporter cells. It is filed as cell-based. The conditions noted are these: for Fold Induction over Background / fold induction: tumour target Nectin4, co-culture with H1376, 6 h; for fold induction: read-out: Fold Induction over Background. In general terms: A reporter such as luciferase makes a cellular process visible.

Starred links: 1 amine or outer side, 2 acyl side, 3 side chain; linkers in the order of their positions; H or OH if unused. Positions of bridges follow the written chain, without caps; N, C: chain ends. Non-standard residues stand in square brackets, D forms with d. Chains are numbered I, II in the order given. X1 = O=C(CCc1cn(CCOCCOCCOCCOCCOCCOCCOCCOCCOCCOCCOCCOCCC(=O)[*:2])nn1)NCCC(=O)[*:1]; TATA = O=C(CC[*:1])N1CN(C(=O)CC[*:2])CN(C(=O)CC[*:3])C1; 1Nal = N[C@@H](Cc1cccc2ccccc12)C(=O)O; Hyp = O=C(O)[C@@H]1C[C@@H](O)CN1; hArg = N=C(N)NCCCC[C@H](N)C(=O)O; tBuAla = CC(C)(C)C[C@H](N)C(=O)O; Nle = CCCC[C@H](N)C(=O)O; Sar = CNCC(=O)O

Sequence of CD137 (Q07011 24-255): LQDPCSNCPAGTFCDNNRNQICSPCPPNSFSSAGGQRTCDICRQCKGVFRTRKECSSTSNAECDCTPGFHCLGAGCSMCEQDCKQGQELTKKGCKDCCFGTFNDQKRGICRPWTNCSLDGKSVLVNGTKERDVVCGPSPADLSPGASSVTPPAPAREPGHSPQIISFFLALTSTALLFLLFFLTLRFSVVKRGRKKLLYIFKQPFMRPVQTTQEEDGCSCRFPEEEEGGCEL

In the case of `CCCC[C@@H]1NC(=O)[C@H](Cc2ccc(O)cc2)NC(=O)[C@@H]2CCCN2C(=O)[C@H](CC(=O)O)NC(=O)[C@H](C)NC(=O)[C@H](Cc2ccccc2)NC(=O)[C@@H]2CSCCC(=O)N3CN(CN(C3)C(=O)CCSC[C@@H](C(=O)N[C@@H](CNC(=O)CCc3cn(CCCNC(=O)CN(C)C(=O)CN(C)C(=O)CN(C)C(=O)CN(C)C(=O)CN(C)C(=O)CCOCCOCCOCCOCCOCCOCCOCCOCCOCCOCCOCCOCCOCCOCCOCCNC(=O)N[C@H]4CSCCC(=O)N5CN6CN(C5)C(=O)CCSC[C@H](NC(=O)[C@@H](CC(=O)O)NC(=O)[C@H](Cc5cccc7ccccc57)NC(=O)[C@@H]5CCCN5C4=O)C(=O)N[C@@H](CCSC)C(=O)N[C@@H](CCCCNC(=N)N)C(=O)N[C@@H](CC(=O)O)C(=O)N[C@@H](Cc4c[nH]c5ccccc45)C(=O)N[C@@H](CO)C(=O)N[C@@H]([C@@H](C)O)C(=O)N4CCC[C@H]4C(=O)N4C[C@H](O)C[C@H]4C(=O)N[C@@H](Cc4c[nH]c5ccccc45)C(=O)N[C@H](C(N)=O)CSCCC6=O)nn3)C(N)=O)NC1=O)C(=O)CCSC[C@H](NC(=O)[C@H](C)NC(C)=O)C(=O)N[C@@H]([C@@H](C)CC)C(=O)N[C@@H](CCC(=O)O)C(=O)N[C@@H](CCC(=O)O)C(=O)NCC(=O)N[C@@H](CCC(N)=O)C(=O)N[C@@H](Cc1ccc(O)cc1)C(=O)N2` [BCY9407], the EC50 was 3400 pM and the “Fold Induction over Background” value came to 29 fold.

On to `CCCC[C@@H]1NC(=O)[C@H](Cc2ccc(O)cc2)NC(=O)[C@@H]2CCCN2C(=O)[C@H](CC(=O)O)NC(=O)[C@H](C)NC(=O)[C@H](Cc2ccccc2)NC(=O)[C@@H]2CSCCC(=O)N3CN(CN(C3)C(=O)CCSC[C@@H](C(=O)N[C@@H](CNC(=O)CCc3cn(CCOCCOCCOCCOCCOCCOCCOCCOCCOCCOCCOCCOCCOCCOCCOCCOCCOCCOCCOCCOCCOCCOCCOCCNC(=O)N[C@H]4CSCCC(=O)N5CN6CN(C5)C(=O)CCSC[C@H](NC(=O)[C@@H](CC(=O)O)NC(=O)[C@H](Cc5cccc7ccccc57)NC(=O)[C@@H]5CCCN5C4=O)C(=O)N[C@@H](CCSC)C(=O)N[C@@H](CCCCNC(=N)N)C(=O)N[C@@H](CC(=O)O)C(=O)N[C@@H](Cc4c[nH]c5ccccc45)C(=O)N[C@@H](CO)C(=O)N[C@@H]([C@@H](C)O)C(=O)N4CCC[C@H]4C(=O)N4C[C@H](O)C[C@H]4C(=O)N[C@@H](Cc4c[nH]c5ccccc45)C(=O)N[C@H](C(N)=O)CSCCC6=O)nn3)C(N)=O)NC1=O)C(=O)CCSC[C@H](NC(=O)[C@H](C)NC(C)=O)C(=O)N[C@@H]([C@@H](C)CC)C(=O)N[C@@H](CCC(=O)O)C(=O)N[C@@H](CCC(=O)O)C(=O)NCC(=O)N[C@@H](CCC(N)=O)C(=O)N[C@@H](Cc1ccc(O)cc1)C(=O)N2` [BCY9400], for which the fold induction came to 13.

Take `CCCC[C@@H]1NC(=O)[C@H](Cc2ccc(O)cc2)NC(=O)[C@@H]2CCCN2C(=O)[C@H](CC(=O)O)NC(=O)[C@H](C)NC(=O)[C@H](Cc2ccccc2)NC(=O)[C@@H]2CSCCC(=O)N3CN(CN(C3)C(=O)CCSC[C@@H](C(=O)N[C@@H](C)C(N)=O)NC1=O)C(=O)CCSC[C@H](NC(C)=O)C(=O)N[C@@H](CC(C)(C)C)C(=O)N1CCC[C@H]1C(=O)N[C@@H](CCC(=O)O)C(=O)N[C@H](CCCCNC(=O)CCc1cn(CC(=O)N[C@H]3CSCCC(=O)N4CN5CN(C4)C(=O)CCSC[C@H](NC(=O)[C@@H](CC(=O)O)NC(=O)[C@H](Cc4cccc6ccccc46)NC(=O)[C@@H]4CCCN4C3=O)C(=O)N[C@@H](CCSC)C(=O)N[C@@H](CCCCNC(=N)N)C(=O)N[C@@H](CC(=O)O)C(=O)N[C@@H](Cc3c[nH]c4ccccc34)C(=O)N[C@@H](CO)C(=O)N[C@@H]([C@@H](C)O)C(=O)N3CCC[C@H]3C(=O)N3C[C@H](O)C[C@H]3C(=O)N[C@@H](Cc3c[nH]c4ccccc34)C(=O)N[C@H](C(N)=O)CSCCC5=O)nn1)C(=O)N1CCC[C@H]1C(=O)N[C@@H](Cc1ccc(O)cc1)C(=O)N2` [BCY11374]: the concentration for a half-maximal effect (EC50) was found to be 91 pM and the “Fold Induction over Background” value was determined as 72 fold.

As for `CCCC[C@@H]1NC(=O)[C@H](Cc2ccc(O)cc2)NC(=O)[C@@H]2CCCN2C(=O)[C@H](CC(=O)O)NC(=O)[C@H](C)NC(=O)[C@H](Cc2ccccc2)NC(=O)[C@@H]2CSCCC(=O)N3CN(CN(C3)C(=O)CCSC[C@@H](C(=O)N[C@@H](CNC(=O)CCc3cn(CCOCCOCCOCCOCCOCCOCCOCCOCCOCCOCCNC(=O)N[C@H]4CSCCC(=O)N5CN6CN(C5)C(=O)CCSC[C@H](NC(=O)[C@@H](CC(=O)O)NC(=O)[C@H](Cc5cccc7ccccc57)NC(=O)[C@@H]5CCCN5C4=O)C(=O)N[C@@H](CCSC)C(=O)N[C@@H](CCCCNC(=N)N)C(=O)N[C@@H](CC(=O)O)C(=O)N[C@@H](Cc4c[nH]c5ccccc45)C(=O)N[C@@H](CO)C(=O)N[C@@H]([C@@H](C)O)C(=O)N4CCC[C@H]4C(=O)N4C[C@H](O)C[C@H]4C(=O)N[C@@H](Cc4c[nH]c5ccccc45)C(=O)N[C@H](C(N)=O)CSCCC6=O)nn3)C(N)=O)NC1=O)C(=O)CCSC[C@H](NC(=O)[C@H](C)NC(C)=O)C(=O)N[C@@H]([C@@H](C)CC)C(=O)N[C@@H](CCC(=O)O)C(=O)N[C@@H](CCC(=O)O)C(=O)NCC(=O)N[C@@H](CCC(N)=O)C(=O)N[C@@H](Cc1ccc(O)cc1)C(=O)N2` [BCY9399], the fold induction was found to be 13.

For the compound `CCCC[C@@H]1NC(=O)[C@H](Cc2ccc(O)cc2)NC(=O)[C@@H]2CCCN2C(=O)[C@H](CC(=O)O)NC(=O)[C@H](C)NC(=O)[C@H](Cc2ccccc2)NC(=O)[C@@H]2CSCCC(=O)N3CN(CN(C3)C(=O)CCSC[C@@H](C(=O)N[C@@H](CNC(=O)CCc3cn(CCOCCOCCOCCOCCOCCC(=O)N[C@H]4CSCCC(=O)N5CN6CN(C5)C(=O)CCSC[C@H](NC(=O)[C@@H](CC(=O)O)NC(=O)[C@H](Cc5cccc7ccccc57)NC(=O)[C@@H]5CCCN5C4=O)C(=O)N[C@@H](CCSC)C(=O)N[C@@H](CCCCNC(=N)N)C(=O)N[C@@H](CC(=O)O)C(=O)N[C@@H](Cc4c[nH]c5ccccc45)C(=O)N[C@@H](CO)C(=O)N[C@@H]([C@@H](C)O)C(=O)N4CCC[C@H]4C(=O)N4C[C@H](O)C[C@H]4C(=O)N[C@@H](Cc4c[nH]c5ccccc45)C(=O)N[C@H](C(N)=O)CSCCC6=O)nn3)C(N)=O)NC1=O)C(=O)CCSC[C@H](NC(C)=O)C(=O)N[C@@H](CC(C)(C)C)C(=O)N1CCC[C@H]1C(=O)N[C@@H](CCC(=O)O)C(=O)N[C@H](C)C(=O)N1CCC[C@H]1C(=O)N[C@@H](Cc1ccc(O)cc1)C(=O)N2` [BCY10573], the EC50 was determined as 900 pM and the “Fold Induction over Background” value stood at 55 fold.

For “I: [Sar][Sar][Sar][Sar][Sar][Sar][Sar][Sar][Sar][Sar]CP[1Nal][dD]CM[hArg]DWSTP[Hyp]WC-NH2 / II: Ac-C[tBuAla]PK[dA]PYCFADPY[Nle]CA-NH2 (linker I:11-I:15-I:25, II:1-II:8-II:15 via TATA; linker I:N-II:4 via X1) [BCY10567]”, the “Fold Induction over Background” value turned out to be 45 fold.

In the case of `CCCC[C@@H]1NC(=O)[C@H](Cc2ccc(O)cc2)NC(=O)[C@@H]2CCCN2C(=O)[C@H](CC(=O)O)NC(=O)[C@H](C)NC(=O)[C@H](Cc2ccccc2)NC(=O)[C@@H]2CSCCC(=O)N3CN(CN(C3)C(=O)CCSC[C@@H](C(=O)N[C@@H](CNC(=O)CCc3cn(CC(=O)N[C@H]4CSCCC(=O)N5CN6CN(C5)C(=O)CCSC[C@H](NC(=O)[C@@H](CC(=O)O)NC(=O)[C@H](Cc5cccc7ccccc57)NC(=O)[C@@H]5CCCN5C4=O)C(=O)N[C@@H](CCSC)C(=O)N[C@@H](CCCCNC(=N)N)C(=O)N[C@@H](CC(=O)O)C(=O)N[C@@H](Cc4c[nH]c5ccccc45)C(=O)N[C@@H](CO)C(=O)N[C@@H]([C@@H](C)O)C(=O)N4CCC[C@H]4C(=O)N4C[C@H](O)C[C@H]4C(=O)N[C@@H](Cc4c[nH]c5ccccc45)C(=O)N[C@H](C(N)=O)CSCCC6=O)nn3)C(N)=O)NC1=O)C(=O)CCSC[C@H](NC(C)=O)C(=O)N[C@@H](CC(C)(C)C)C(=O)N1CCC[C@H]1C(=O)N[C@@H](CCC(=O)O)C(=O)N[C@H](C)C(=O)N1CCC[C@H]1C(=O)N[C@@H](Cc1ccc(O)cc1)C(=O)N2` [BCY11375], the concentration for a half-maximal effect (EC50) came out at 230 pM and the “Fold Induction over Background” value is 72 fold.

Turning to “I: [Sar][Sar][Sar][Sar][Sar][Sar][Sar][Sar][Sar][Sar]CP[1Nal][dD]CM[hArg]DWSTP[Hyp]WC-NH2 / II: Ac-C[tBuAla]PE[dK]PYCFADPY[Nle]CA-NH2 (linker I:11-I:15-I:25, II:1-II:8-II:15 via TATA; linker I:N-II:5 via X1) [BCY10569]”, a half-maximal response (EC50) required 1200 pM and the “Fold Induction over Background” value is on record as 52 fold.

In the case of `CCCC[C@@H]1NC(=O)[C@H](Cc2ccc(O)cc2)NC(=O)[C@@H]2CCCN2C(=O)[C@H](CC(=O)O)NC(=O)[C@H](C)NC(=O)[C@H](Cc2ccccc2)NC(=O)[C@@H]2CSCCC(=O)N3CN(CN(C3)C(=O)CCSC[C@@H](C(=O)N[C@@H](CNC(=O)CCc3cn(CCOCCOCCOCCOCCOCCC(=O)NCCC(=O)N(C)CC(=O)N(C)CC(=O)N(C)CC(=O)N(C)CC(=O)N(C)CC(=O)N(C)CC(=O)N(C)CC(=O)N(C)CC(=O)N(C)CC(=O)N(C)CC(=O)NCCCC[C@H]4NC(=O)[C@H](Cc5cccc6ccccc56)NC(=O)[C@@H]5CCCN5C(=O)[C@@H](NC(C)=O)CSCCC(=O)N5CN6CN(C5)C(=O)CCSC[C@H](NC4=O)C(=O)N[C@@H](CCSC)C(=O)N[C@@H](CCCCNC(=N)N)C(=O)N[C@@H](CC(=O)O)C(=O)N[C@@H](Cc4c[nH]c5ccccc45)C(=O)N[C@@H](CO)C(=O)N[C@@H]([C@@H](C)O)C(=O)N4CCC[C@H]4C(=O)N4C[C@H](O)C[C@H]4C(=O)N[C@@H](Cc4c[nH]c5ccccc45)C(=O)N[C@H](C(N)=O)CSCCC6=O)nn3)C(N)=O)NC1=O)C(=O)CCSC[C@H](NC(C)=O)C(=O)N[C@@H](CC(C)(C)C)C(=O)N1CCC[C@H]1C(=O)N[C@@H](CCC(=O)O)C(=O)N[C@H](C)C(=O)N1CCC[C@H]1C(=O)N[C@@H](Cc1ccc(O)cc1)C(=O)N2` [BCY11020], the “Fold Induction over Background” value is recorded as 47 fold.

A word on the EC50: it is the midpoint of the concentration-response curve. Read a low EC50 as an effect from little substance.

The record behind these values is patent US11453703B2, “Heterotandem bicyclic peptide complexes” (BicycleTX Limited, priority 2018, dated 2022).
